Consider one substance from US20080004561A1, “Method for Treating Oncological, Virulent and Somatic Diseases, Method for Controlling Treatment Efficiency, Pharmaceutical Agents and Composition for Carrying Out Said Treatment” (priority 2005, published 2008).

“Also recorded” adds a separate entry of the source.

The subject of assay [1] is Erlich carcinoma. Briefly: Influence of DNase administrated twice a day on Erlich tumor growth at mice (Example 1). It is filed as in vivo. To be noted: day 3 to 7, 7 day after transplantation. The procedure:
(§1) Bovine pancreatic DNase I (Fermentas) and human recombinant DNase I (Dornase; Gentech) were used. DNase I solution for injections were prepared by dissolving of DNase matrix solution in sterile phosphate buffer directly before administration. Cyclophosphamide and Doxorubicin were dissolved according to instruction.
(§2) Blood plasma DNA of tumor-bearing mice was received according to technique described above. Highly metastatic and low metastatic stains of mice' Luice lung carcinoma and Erlich carcinoma were used. Cells were cultivated in RPMI-1640 media with adding of 10% embryonic calf serum, 1% penicillin—streptomycin in 5% carbon dioxide atmosphere. For tumor induction in mice, cells were cultivated until the monolayer, than were detached with trypsin-EDTA solution. Cells were washed trice by centrifuging in phosphate buffer and were resuspensed until their concentration have become 0.5×10^7/ml. Viability was defined by inclusion of methylene blue in hemocytometer. Suspensions that contained 95% of viable cells were used for administration to animals.
(§3) Mice of C57B1 line and white not thoroughbred mice from “Rappolovo” animal house were used. Weight of animals was 24-26 grams. Animals were contained in cages, for 6-7 mice per one cage on a standard diet without water restriction. LLC cells in dose of 5×10^5 in 100 mkl of phosphate buffer were injected in soft tissues of thigh. Erlich tumor was subcutaneously replanted on the right side by injection of 0.2 ml 10% cells' suspension in isotonic sodium chloride solution.
Influence of DNase I Administrated Twice a Day on Erlich Tumor Growth at Mice
(§4) Group 1—10 mice transplanted with Erlich carcinoma (control).
(§5) Group 2—10 mice transplanted with Erlich carcinoma. Mice were intraperitoneally injected with DNase at 1 mg/kg dose in […] of phosphate buffer twice a day starting from 3 up to 7 day after tumor transplantation.
Group 3—10 mice transplanted with Erlich carcinoma. Mice were intraperitoneally injected with DNase at 2 mg/kg dose in […] of phosphate buffer twice a day starting from 3 up to 7 day after tumor transplantation.

Assay [2] concerns Erlich carcinoma. Briefly: Inhibition of Erlich tumor growth by different schemes of DNase administration (Example 2). The class given is in vivo, mice. To be noted: day 3 to 7, 7 day after transplantation. The procedure:
as §1, §2, §3
In our experiments DNA circulating in blood plasma of patients was the therapeutic target of DNase. Prolonged presence of DNase in blood plasma at catalytically effective concentrations is essential for provision of maximal therapeutic effect.
as §4, §5
Group 3—10 mice transplanted with Erlich carcinoma. Mice were intraperitoneally injected with DNase at 0.5 mg/kg dose in […] of phosphate buffer four times a day starting from 3 up to 7 day after tumor transplantation.

Assay [3] deals with Escherichia coli ATCC25922. Description: Influence of DNase on bacterial biofilm formation on glass (Example 4). The class given is cell-based. The method, then: (§6) For estimation of possible mechanisms of DNase action on bacteria' interactions with host's organism we have estimated its influence on biofilm formation.
(§7) Experiments were performed on biofilm models, received at laboratory cultivation on the surface of glass. Non-relative Gram-positive (Staphylococcus aureus VT-209) and Gram-negative (Escherichia coli ATCC25922) bacteria were used.
(§8) Bacteria were sowed at 10^9 bacteria/ml concentrations and were incubated at 37° C. during 72 hours on synthetic M9 media that contains additives necessary for used bacteria strains. DNase was added in amount of 100 mkg/ml right after bacteria' inoculation. Identical volume of phosphate buffer was added to control. Selective vials were taken for analysis every 24 hours.
(§9) Glasses were washed by PBS buffer, fixed, stained with methylene blue and studied with the use of light microscopy.

Assay [4] concerns Staphylococcus aureus VT-209. Described as above. It is filed as cell-based. The method, then: as §6, §7, §8, §9
Assay [5] relates to DNA from fresh blood serum. Description: Sensitivity of circulating blood DNA to DNase action, electrophoresis (Example 9). The class given is biochemical, volunteers. To be noted: DNA processed by DNase I for 3 hours at 37° C. The procedure: DNA from fresh blood serum (mixture of blood received from 5 volunteers ) was isolated by standard phenol-chloroform method.
Sediment of nucleic acids was washed by 70% ethanol and dissolved in tris-EDTA buffer. Spectrophotometry with wave's length 260 nm (SF-46) was used for quantification of DNA. DNA was researched by electrophoresis in 0.8% […] gel with ethidium bromide staining. One part of received DNA was processed by DNase I for 3 hours at 37° C. After electrophoretic separation of processed and not processed DNA it was found out that: […]

Assay [6] has as its system LLC tumor (highly metastatic strain). Briefly: DNase I influence on life span of mice transplanted with LLC tumor, highly metastatic strain (Example 16). It is filed as in vivo, C57B1 mice. The note with it: for Tumor's growth at the last day of DNase treatment: DNase 1 mg/kg two times a day, growth renewed after withdrawal; for 30 day (number of alive\number of dead in group) / 50 day (number of alive\number of dead in group): DNase 1 mg/kg intraperitoneally two times a day. The procedure:
Five groups of LLC transplanted mice participated in the experiment.
Group 1—7 mice (control).
Group 2—6 mice were treated with intraperitoneal administration of DNase at 1 mg/kg dose two times a day starting from 3 up to 7 day after tumor transplantation.
Group 3—6 mice were treated with intraperitoneal administration of DNase at 1 mg/kg dose two times a day starting from 3 up to 10 day after tumor transplantation.
Group 4—6 mice were treated with intraperitoneal administration of DNase at 1 mg/kg dose two times a day starting from 3 up to 15 day after tumor transplantation.
Group 5—6 mice were treated with intraperitoneal administration of DNase at 1 mg/kg dose two times a day starting from 3 up to 18 day after tumor transplantation.
Results of experiment were estimated according to animals' survival on the 30 and 50 day after tumor transplantation.

Another assay deals with tumor cells. Description: In vitro effect of DNase I on tumor cells' growth. It is filed as cell-based. To be noted: DNase I concentration up to 100 mkg/ml.
Assay [7] relates to HPRT gene's mutations in blood T-lymphocytes. Description: Frequency of HPRT gene's mutations in blood T-lymphocytes, somatic mosaicism model (Example 18). The note with it: patients on Neovir after tumor surgery; human recombinant DNase I 200 mkg/kg intravenously 4 times a day during three weeks. The class given is in vivo. The text has this: Frequency of HPRT gene's mutations in blood T-lymphocytes was studied as a model of somatic mosaicism. Human HPRT gene (chromosome Xq26) encodes enzyme that is constitutionally expressing but not essential and is involved in metabolism of purine nucleotides. Cloning was done according to Bigbee W. method (Bigbee W. Et al., Mutation Res., 1998, v. 397, pp. 119-136).

The mark [8] stands for this setting: DNase 1 mg/kg intraperitoneally twice a day.
[9] abbreviates: DNase 2 mg/kg intraperitoneally twice a day.
Where [10] appears, read: DNase 0.5 mg/kg intraperitoneally four times a day.
[11] abbreviates: DNase 100 mkg/ml added right after inoculation, 37° C., 72 hours, M9 media, light microscopy.
Where [12] appears, read: DNase 100 mkg/ml, control sowings from vials.

Regarding DNase, the TGI % is listed as 61% with Erlich carcinoma [1] (setting [8]) and 60% with Erlich carcinoma [1] (setting [9]). Moreover, the “Tumor's volume” value is on record as 33 +/− 6 in the assay with Erlich carcinoma [1] (setting [8]), 34 +/− 7 with Erlich carcinoma [1] (setting [9]), 23 +/− 6 in the assay with Erlich carcinoma [2] (setting [10]) and 32 +/− 6 with Erlich carcinoma [2] (setting [8]). The “T% (tumor's growth inhibition)” value turned out to be 76% in the assay with Erlich carcinoma [2] (setting [10]) and 67% with Erlich carcinoma [2] (setting [8]). Further, the Biofilm formation entry in assay [3] (setting [11]) and in assay [4] (setting [11]) was “normal biofilm was not formed” in each case. Besides, the “Colony-forming units (CFU) in comparison with controls” value in assay [3] (setting [12]) and in assay [4] (setting [12]) was “no death of cells” throughout. For the same substance, the “DNA band after electrophoresis” value in assay [5] is “disappeared completely”. In addition, the “Tumor's growth at the last day of DNase treatment” value in assay [6] (2nd group, day 3 to 7) is recorded as “significant inhibition of tumor's growth”; in assay [6] (3rd group, day 3 to 10) it was “significant inhibition of tumor's growth”. The entries for the “30 day (number of alive\number of dead in group)” value in assay [6] (day 3 to 7) and in assay [6] (day 3 to 10) were 0-6 and 3-6, respectively. Further, the “50 day (number of alive\number of dead in group)” value is given as 0-6 in assay [6] (day 3 to 7), 0-6 in assay [6] (day 3 to 10) and 3-3 in assay [6] (day 3 to 15). For the same substance, the “Inhibition of tumor growth at day 18” value in assay [6] (DNase 1 mg/kg two times a day from 3rd up to 18th day) is listed as “more than 95%”. For the same substance, in the assay with tumor cells, the “Effect on tumor cells' growth in vitro” value is reported as “does not cause direct cytotoxic effect; also recorded: not seen any suppressive effect”. Further, the “Incidence of HPRT-deficient clones, times less than with immunostimulating therapy only” value in assay [7] is given as 3 times.
